The test system of one series is antibody to SDMA. Description: Fluorescence decrease of tracer A3 on complexing with anti-SDMA antibody conjugated to BHQ10 (FIG. 23). It counts as binding. An excerpt: The decrease in fluorescence of a fluorescent tracer when it forms a complex with a binding partner that is conjugated to a quencher is a function of the equivalents of quencher molecules that are conjugated to the binding partner. The more quencher molecules conjugated to the binding partner, the greater the decrease in fluorescence. This is depicted in FIG. 23 as a plot of fluorescence vs. ratio of antibody:fluorescent tracer for antibody that is conjugated to 2, 4, 6, and 8 BHQ10 quencher molecules.

Series [1] is described as follows: Absorption and emission spectra of fluoresceins and SDMA conjugates (Example 33). The class given is physicochemical. Particulars: PBS buffer. An excerpt:
The maximum absorption of fluorescein (Fl) in PBS buffer is at 489 nm and the maximum fluorescence emission is at 515 nm. When the fluorescein molecule is conjugated with an SDMA molecule via a —CH2NH— linker (i.e., to provide SDMA-Fl), its maximum absorption and emission are shifted to 495 nm and 525 nm, respectively. When the fluorescein molecule is substituted by fluorine at the 2′ and 7′ positions (i.e., to provide DFF) there is no any change in the maximum absorption and emission compared to unsubstituted fluorescein. When the fluorescein molecule is substituted by chloride at the 2′ and 7′ positions (i.e., to provide DCF) the maximum absorption and emission are red-shifted to 500 nm and 525 nm, respectively. Also conjugating DFF or DCF to SDMA via a —CH2NH— linker (i.e., to provide SDMA-DFF and SDMA DCF, respectively) results in the maximum absorption and emission being red-shifted. The maximum absorption and emission wavelengths of fluorescein (FL), 2′,7′-difluorofluorescien (DFF), 2′,7′-dichlorofluorescien (DCF), and their conjugates with SDMA via a —CH2NH— linker (i.e., SDMA-Fl (i.e., structure A3), SDMA-DFF, and SDMA-DCF) are listed in the Table provided below. The absorption spectra of DFF, SDMA-DFF, DCF, SDMA-DCF, Fl, and SDMA-FL are depicted in FIG. 25A and the emission spectra of SDMA-DFF, SDMA-DCF, Fl, and SDMA-FL are depicted in FIG. 25B.

The subject of a further series is anti-SDMA antibody. In words: Fluorescence quenching of SDMA tracers by anti-SDMA antibody or antibody-BHQ10 (Example 34). The class given is binding. Particulars: for fluorescence quenched by adding anti-SDMA antibody: antibody not conjugated to a quencher. The protocol: Solutions of anti-SDMA antibody or anti-SDMA antibody conjugated to BHQ10 (4 eq.) in phosphate buffered saline (PBS) were prepared at concentrations of 0, 0.25, 0.5, 1, 2, 4, 8, and 16 μM (antibody solution). Solutions of an SDMA fluorescent tracer (i.e., SDMA-Fl, SDMA-DFF, or SDMA-DCF) in PBS were prepared at a concentration of 100 nM (tracer solution). 50 μL of antibody solution and 50 μL of tracer solution were combined on a 96-well UV plate and incubated for 30 min. at room temperature. […] The results are depicted in FIGS. 26 and 27.

Series [2] has as its system anti-penicillin polyclonal antibody. Description: Fluorescence of beta lactam-fluorescein conjugates with anti-penicillin antibody (Example 25). It counts as binding. The note with it: tracer and antibody 200 nM. How it is done: Beta lactam antibiotics conjugated to fluorescein (i.e., AMO-FITC, AMO-F, AMP-F, and CEF-F) in PBS (400 nM, 100 μL) were mixed with either anti-penicillin or anti-cefotaxime polyclonal antibody (400 nM, 100 μL, commercially available from Novus Biologicals, LLC of Centennial, CO) in the absence of and in the presence of free beta-lactam antibiotic (ampicillin (400 nM) was added to AMP-F and cefotaxime (400 nM) was added to CEF-F) in a 96 well black assay plate. […] The solutions were incubated at room temperature for 5 min and the fluorescence intensity measured.

The subject of series [3] is Cy5 conjugated antibody (Ab-Cy5, anti-T4-Mab). Description: Fluorescence quenching of T4-F by Ab-Cy5 (Example 23). It counts as binding. The protocol:
T4-F was dissolved in DMSO (1 mM) and diluted with PBS to provide a stock solution (4 μM). A series of PBS solutions of Cy5 conjugated antibody (Ab-Cy5, made as in Example 12) having Ab-Cy5 concentrations ranging from 0 to 400 nM were prepared by serial dilution. In the wells of a 96 well black assay plate was combined T4-F in PBS (5 μL) and a serially diluted Ab-Cy5 solution (95 μL) and the plate shaken for 30 min at room temperature.

In series [4] the test system is anti-sulfadimethoxine monoclonal antibody. Description: Fluorescence of SDM-F or SDM-Su-F with anti-sulfadimethoxine monoclonal antibody (Example 26). The class given is binding. The protocol: SDM-F or SDM-Su-F in PBS (400 nM, 100 μL) was mixed with anti-sulfadimethoxine monoclonal antibody (400 nM, 100 μL, commercially available from Genway Biotech of San Diego, CA) in the absence of and the presence of sulfadimethoxine (SDM) (400 nM). The resulting solutions were incubated at room temperature for 5 min and the fluorescence intensity then measured.

The next series has as its system anti-T4 antibody. Description: Maximum percentage fluorescence quenching of T2-F, T3-F, T4-F by anti-T4 antibody with and without quencher label (Example 27 table). It counts as binding. The protocol: In another experiment, tracer T2-F, T3-F, or T4-F was dissolved in DMSO to provide a DMSO solution at a tracer concentration of 1 mM. The DMSO solution was then diluted with phosphate buffered saline (“PBS”) to provide a stock solution of each tracer at a concentration of 10 μM. Monoclonal anti-T4-Mab or anti-T4-Mab conjugated to a quencher (Cy3-Ab, IRdyeQC1-Ab, Cy5-Ab, BHQ1-Ab) were serially diluted in PBS to provide solutions having an Anti-T4-Mab or anti-T4-Mab conjugated to quencher at concentration ranging from 0 to 2 μM. In a 96 well black assay plate containing the serially diluted Anti-T4-Mab or anti-T4-Mab conjugated to quencher (95 μL) was added the tracer T2-F, T3-F, or T4-F solution (5 μL), mixed well, and incubated for 30 min and the fluorescence intensities then recorded at an excitation wavelength of 485 nm and an emission wavelength of 520 nm. The results of maximum percentage fluorescence quenching for different tracers and quencher-modified antibodies are provided in the following Table: […]

In series [5] the test system is Monoclonal anti-CysB antibody (7C2). In words: Fluorescence quenching of canine CysB peptide-Fl/DFF conjugates by anti-CysB Mab or Mab-BHQ10 (Example 51). The class given is binding, mouse. Particulars: Ab/Conjugate ratio = 2/1. How it is done:
CysB peptide-fluorescein (Fl) or -difluorofluorescein (DFF) conjugates were dissolved in DMSO (0.5 mM) and diluted with Tris Buffer ([…] at pH8.0) to provide a stock solution (100 nM). Monoclonal anti-CysB antibody (7C2, raised against a peptide having the amino acid sequence of SEQ ID NO: 14) (8 mg/ml) was serially diluted in PBS buffer to provide solutions having an Anti-CysB-Mab concentration ranging from 0 to 800 nM in Tris buffer (50 mM at pH 8.0 with 0.5% sarkosyl (sodium lauroyl sarcosinate)). In a 96-well black assay plate containing the serially diluted Anti-CysB-Mab solution (50 μL) was added the peptide-Fl or peptide-DFF solution (50 μL), mixed well, incubated for 30 min and the fluorescence intensities recorded. The results are provided in FIG. 38, 39, 40, and Table 1.

In the next series the test system is anti-CysB Mab. In words: Peptide/full length canine CysB protein dose response in Tris buffer and serum (Example 51). The class given is binding, mouse. Particulars: peptide 0 to 3200 nM added to mixture of antibody and P6-Fl or P6-DFF, Tris buffer. How it is done: A mixture of CysB P6-Fl or P6-DFF in Tris buffer with 0.1% Tween 20 (200 nM, 25 μL) and anti-Cys-Mab in Tris buffer with 0.1% Tween 20 (400 nM, 25 μL) was incubated at room temperature for 30 min in the wells of a 96 well black assay plate. A series of CysB peptides P6, P7, and P14 standard solutions having peptide concentrations ranging from 0 to 3200 nM (50 μL) were then added to the mixtures of the P6-Fl or P6-DFF and anti-CysB Mab in Tris Buffer. The plate was then incubated for 30 min at room temperature and the fluorescence intensities recorded at an excitation of 485 nm and an emission of 520 nm. The results are shown in FIG. 43, FIG. 44, FIG. 45, and FIG. 46.

Consider `C/N=C(\NC)NCCC[C@@H](N)C(=O)NCc1c(O)ccc2c(-c3ccccc3C(=O)O)c3ccc(=O)cc-3oc12` (stereo in doubt) [SDMA-Fl], for which the “maximum decrease in fluorescence” value in the series on antibody to SDMA (antibody conjugated to 2 equivalents of BHQ10) was “about 50%”. For the same compound, the “maximum decrease in fluorescence” value in the series with antibody to SDMA (antibody conjugated to 8 equivalents of BHQ10) is listed as “about 70%”. For the same compound, in series [1], the “Max Absorption” value is listed as 495 nm and the “Max Emision” value amounted to 525 nm. Also, the “fluorescence quenched by adding anti-SDMA antibody” value in the series on anti-SDMA antibody was “about 30%”.
`CC1(C)SC2C(NC(=O)C(NCc3c(O)ccc4c(-c5ccccc5C(=O)O)c5ccc(=O)cc-5oc34)c3ccc(O)cc3)C(=O)N2C1C(=O)O` (centres unmarked) [AMO-F, Amoxicillin-Fluorescein]: the “fluorescence quenching by anti-penicillin antibody” value in series [2] was “quenched”.
For `CC1(C)SC2C(NC(=O)C(NC(=S)Nc3ccc(-c4c5ccc(=O)cc-5oc5cc(O)ccc45)c(C(=O)O)c3)c3ccc(O)cc3)C(=O)N2C1C(=O)O` (centres unmarked) [AMO-FITC], the “fluorescence quenching by anti-penicillin antibody” value in series [2] was “not quenched”.
Take `CC1(C)SC2C(NC(=O)C(NCc3c(O)ccc4c(-c5ccccc5C(=O)O)c5ccc(=O)cc-5oc34)c3ccccc3)C(=O)N2C1C(=O)O` (centres unmarked) [AMP-F, Ampicillin-Fluorescein]: the “fluorescence quenching by anti-penicillin antibody” value in [2] is given as “quenched”.
On to `CCN1/C(=C/C=C/C=C/C2=[N+](CCCCCC(=O)O)c3ccc(S(=O)(=O)O)cc3C2(C)C)C(C)(C)c2cc(S(=O)(=O)[O-])ccc21` [Cy5, reference compound], for which the “quenching of T4-F fluorescence by Cy5 alone (not conjugated to Anti-T4-Mab)” value in series [3] is listed as “did not quench fluorescence”.
With `COc1cc(NS(=O)(=O)c2ccc(NCc3c(O)ccc4c(-c5ccccc5C(=O)O)c5ccc(=O)cc-5oc34)cc2)nc(OC)n1` [SDM-F, Sulfadimethoxine-Fluorescein], in series [4], the “amount of quenching compared to SDM-Su-F” value is “greater amount of quenching” and the “fluorescence quenching by anti-sulfadimethoxine monoclonal antibody” value is recorded as “quenched”.
With `COc1cc(NS(=O)(=O)c2ccc(NC(=O)CCC(=O)NCc3c(O)ccc4c(-c5ccccc5C(=O)O)c5ccc(=O)cc-5oc34)cc2)nc(OC)n1` [SDM-Su-F, Sulfadimethoxine-Succinic-Fluorescein], the “fluorescence quenching by anti-sulfadimethoxine monoclonal antibody” value in [4] was “quenched”.
On to `CNC(=NCCCC(N)C(=O)NCc1c(O)c(F)cc2c(-c3ccccc3C(=O)O)c3cc(F)c(=O)cc-3oc12)NC` (centres unmarked) [SDMA-DFF], for which, in series [1], the “Max Absorption” value is reported as 437 nm and the “Max Emision” value is listed as 525 nm. Further, the “quenching efficiency in comparison with SDMA-Fl” value in the series with anti-SDMA antibody (anti-SDMA antibody conjugated to BHQ10 (4 eq.)) is recorded as “slightly greater”. Besides, in the series on anti-SDMA antibody, the “fluorescence quenched by adding anti-SDMA antibody” value is given as “about 50%”.
Take `O=C(O)c1ccccc1-c1c2ccc(=O)cc-2oc2c(CNC(Cc3cc(I)c(Oc4cc(I)c(O)c(I)c4)c(I)c3)C(=O)O)c(O)ccc12` (centres unmarked) [T4-F]: the quenching efficiency entry in series [3] (ratio of T4-F: Ab-Cy5 of about 1:1) was “about 70%”. Also, the “Percentage of fluorescence quenching, BHQ1-Ab” value in the series with anti-T4 antibody (anti-T4-Mab conjugated to BHQ1) was “No”. Further, the “Percentage of fluorescence quenching, Cy5-Ab” value in the series with anti-T4 antibody (anti-T4-Mab conjugated to Cy5) is given as 31%. Besides, the “Percentage of fluorescence quenching, Ab” value in the series on anti-T4 antibody (anti-T4-Mab without quencher) is given as “No”.
GHDELAYF [P7, canine CysB peptide]: the “Percentage Fluorescence Quenching, DFF Conjugate At 5-Position” value in [5] (CysB peptide conjugated to 5-position of difluorofluorescein) amounted to 5%. Besides, in [5] (CysB peptide conjugated to 5-position of fluorescein), the “Percentage Fluorescence Quenching, F1 Conjugate At 5-Position” value came to 5%. In addition, the “fluorescence intensity as a function of CysB peptide concentration” value in the series on anti-CysB Mab is reported as “a dose response was observed”.

For the origin of these results see US12345641B2, “Fluorescence quenching immunoassay” (IDEXX Laboratories, Inc., priority 2020, dated 2025).
